From patent US20250144220A1, “CONJUGATE FOR PREVENTING AND TREATING VIRAL INFECTIONS AND USE THEREOF” (priority 2021, published 2025)
Where two headings read alike, the source gives them in different places.

What was measured:
IFV B/Lee/40 = experiment: microbe, parasite or virus in culture; type: cell-based; details: unidentified influenza virus, 120 h
[1] = system: IFV A/California/2/2014 (H3N2); experiment: microbe, parasite or virus in culture; type: cell-based; details: Influenza A virus, 120 h
[2] = target: Influenza A H1N1 (A/California/04/2009) Neuraminidase/NA (Influenza A virus (A/California/04/2009(H1N1)), UniProt C3W5S3); experiment: biochemical; details: neuraminidase 1 U/ml
H1N1(A/PR/8/34) virus = experiment: microbe, parasite or virus in culture; type: cell-based; details: Influenza A virus, 96 h
in vitro = type: cell-based; details: dog
Procedure: • Toxicity of the tested compounds to MDCK cells was quantified by MDCK cell lines. […] The cell control without compound was also configured. The cells were incubated in an incubator for 4 days. • 4) 50 μL of Cell-titer Glo was added to each well, and the chemiluminescence was detected by a Microplate Reader. Inhibition rate=(average value of cell control−value of tested compounds)/average value of cell control […]

[3] = system: A/Chicken/Jiangsu/k0402/2010 (H5N1); experiment: microbe, parasite or virus in culture; type: cell-based; details: Influenza A virus, H5N1, MDCK, 72 h
[4] = system: A/Chicken/Eastern/JTC11/2013 (H7N9); experiment: microbe, parasite or virus in culture; type: cell-based; details: Influenza A virus, H7N9, MDCK, 72 h
[5] = system: B/Jiangsu/YZ08/2018 (Yamagata); experiment: microbe, parasite or virus in culture; type: cell-based; details: unidentified influenza virus, MDCK cells, 72 hours
B/YZ29/2019 (Victoria) = experiment: microbe, parasite or virus in culture; type: cell-based; details: unidentified influenza virus, MDCK cells, 72 hours
H1N1(A/PR/8/34) = experiment: microbe, parasite or virus in culture; type: cell-based, influenza virus H1N1(A/PR/8/34); details: Influenza A virus, MDCK, 96 h
[6] = MDCK cells, H1N1(A/PR/8/34), 4 days, Cell-titer Glo
[7] = IFV B/Lee/40, MDCK cells, 5 days, read-out: EC50
[8] = IFV A/California/2/2014 (H3N2), MDCK cells, 5 days, read-out: EC50

SMILES | IC50 [2] [nM] | EC50 (H1N1(A/PR/8/34) virus; [6]) [nM] | CC50 at 4 days (in vitro) [nM] | further results
O=C1c2c(O)c(=O)ccn2N([C@@H]2c3ccccc3SCc3c2ccc(F)c3F)[C@@H]2COCCN12 [Baloxavir, baloxivir] | – | – | – | EC50 (IFV B/Lee/40; MDCK): 1.47 nM; EC50 ([1]; H3N2, MDCK): 0.39 nM
C#CCOCCOCCOCCOCCOC(=O)N(CCOCCN(C)C(=O)O[C@@H]([C@@H]1OC(C(=O)O)=C[C@H](NC(=N)N)[C@H]1NC(C)=O)[C@H](O)CO)CCOCCN(C)C(=O)O[C@@H]([C@@H]1OC(C(=O)O)=C[C@H](NC(=N)N)[C@H]1NC(C)=O)[C@H](O)CO [C-Inter-1] | 10.4 | 0.28 | > 100000 | –
C#CCOCCOCCOCCOCCNC(=O)N(CCOCCN(C)C(=O)O[C@@H]([C@@H]1OC(C(=O)O)=C[C@H](NC(=N)N)[C@H]1NC(C)=O)[C@H](O)CO)CCOCCN(C)C(=O)O[C@@H]([C@@H]1OC(C(=O)O)=C[C@H](NC(=N)N)[C@H]1NC(C)=O)[C@H](O)CO [C-Inter-2] | 14.2 | 0.42 | > 100000 | –
C#CCOCCOCCOCCN1CCC(N(CCOCCN(C)C(=O)O[C@@H]([C@@H]2OC(C(=O)O)=C[C@H](NC(=N)N)[C@H]2NC(C)=O)[C@H](O)CO)CCOCCN(C)C(=O)O[C@@H]([C@@H]2OC(C(=O)O)=C[C@H](NC(=N)N)[C@H]2NC(C)=O)[C@H](O)CO)CC1 [C-Inter-3] | 21.3 | 0.39 | > 100000 | –
C#CCOCCOCCOCCN1CCN(C(=O)N(CCOCCN(C)C(=O)O[C@@H]([C@@H]2OC(C(=O)O)=C[C@H](NC(=N)N)[C@H]2NC(C)=O)[C@H](O)CO)CCOCCN(C)C(=O)O[C@@H]([C@@H]2OC(C(=O)O)=C[C@H](NC(=N)N)[C@H]2NC(C)=O)[C@H](O)CO)CC1 [C-Inter-4] | 48.7 | – | – | –
C#CCOCCOCCOCCOC1CCN(C(=O)N(CCOCCN(C)C(=O)O[C@@H]([C@@H]2OC(C(=O)O)=C[C@H](NC(=N)N)[C@H]2NC(C)=O)[C@H](O)CO)CCOCCN(C)C(=O)O[C@@H]([C@@H]2OC(C(=O)O)=C[C@H](NC(=N)N)[C@H]2NC(C)=O)[C@H](O)CO)CC1 [C-Inter-5] | 37 | 0.45 | > 100000 | –
C#CCOCCOCCOCCOCCN(C)C(=O)N(CCOCCN(C)C(=O)O[C@@H]([C@@H]1OC(C(=O)O)=C[C@H](NC(=N)N)[C@H]1NC(C)=O)[C@H](O)CO)CCOCCN(C)C(=O)O[C@@H]([C@@H]1OC(C(=O)O)=C[C@H](NC(=N)N)[C@H]1NC(C)=O)[C@H](O)CO [C-Inter-6] | 11.9 | 0.25 | > 100000 | –
C#CCOCCOCCOCCOCCNS(=O)(=O)N(CCOCCN(C)C(=O)O[C@@H]([C@@H]1OC(C(=O)O)=C[C@H](NC(=N)N)[C@H]1NC(C)=O)[C@H](O)CO)CCOCCN(C)C(=O)O[C@@H]([C@@H]1OC(C(=O)O)=C[C@H](NC(=N)N)[C@H]1NC(C)=O)[C@H](O)CO [C-Inter-7] | 7.64 | 0.57 | > 100000 | –
C#CCOCCOCCOCCNC(=N)N(CCOCCN(C)C(=O)O[C@@H]([C@@H]1OC(C(=O)O)=C[C@H](NC(=N)N)[C@H]1NC(C)=O)[C@H](O)CO)CCOCCN(C)C(=O)O[C@@H]([C@@H]1OC(C(=O)O)=C[C@H](NC(=N)N)[C@H]1NC(C)=O)[C@H](O)CO [C-Inter-10] | 10.8 | 0.39 | > 100000 | –
CCC(CC)O[C@@H]1C=C(C(=O)O)C[C@H](N)[C@H]1NC(C)=O [Oseltamivir acid] | – | – | – | EC50 [3]: 210 nM; EC50 [4]: 540 nM; EC50 [5]: 780 nM; EC50 (B/YZ29/2019 (Victoria)): 710 nM; EC50 (IFV B/Lee/40; [7]): 801 nM; EC50 [1, 8]: > 100000 nM
CC(=O)N[C@H]1[C@H]([C@H](O)[C@H](O)CO)OC(C(=O)O)=C[C@@H]1N=C(N)N [Zanamivir, zanamivir, reference compound] | – | – | – | EC50 (H1N1(A/PR/8/34) virus; MDCK): 39.7 nM; CC50 (in vitro): > 100000 nM; EC50 (H1N1(A/PR/8/34)): 45.7 nM; EC50 [5]: 90 nM; EC50 (B/YZ29/2019 (Victoria)): 59 nM; EC50 (IFV B/Lee/40; [7]): 57.5 nM; EC50 [1, 8]: > 10000 nM
